Results taken from US8343696B2, “Colored curable composition, fluorine-containing dipyrromethene compound and tautomer thereof, and fluorine-containing dipyrromethene metal complex and tautomer thereof, and color filter using the same and method for producing the color filter” (FUJIFILM Corporation, priority 2008, dated 2013).

Experiments:
Assay type in all cases: physicochemical
[1] = Light-fastness of coating film (color difference ΔEab before and after xenon lamp irradiation); details: xenon lamp 20,000 luxes for 10 hours (200,000 lux·h)
Experimental: A glass substrate having undercoat layer formed by applying the colored resin composition obtained in section 3 above was irradiated with a xenon lamp at an intensity of 20,000 luxes for 10 hours (equivalent to 200,000 lux·h), and the color difference ΔEab between before and after the irradiation was determined. The light-fastness was evaluated according to the following criteria. A smaller ΔEab value indicates better light-fastness.
(§1) A: ΔEab value was less than 6
(§2) B: ΔEab value was from 6 to 10
(§3) C: ΔEab value was more than 10

[2] = Absorption spectrum in ethyl acetate solution (spectrophotometer UV-2400PC)
Experimental: In consideration of film thickness, the molar absorption coefficient of the specific metal complex compounds-1, -2, -3 and -4 of the invention is preferably as high as possible, and 60,000 or higher is preferable. The maximum absorption wavelength (λmax) thereof is preferably from 520 nm to 580 nm, and more preferably from 530 nm to 570 nm, in order to improve color purity. The maximum absorption wavelength and the molar absorption coefficient are determined by using a spectrophotometer UV-2400PC (manufactured by Shimadzu Corporation).
The molar absorption coefficient (ε) of each of the obtained compounds was measured in an ethyl acetate solution using a spectrophotometer (trade name: UV-2400PC; manufactured by Shimadzu Corporation). The absorbance (Abs) at 450 nm was evaluated by normalizing the absorbance at a maximum absorption wavelength (λmax) to 1.0. […] The measurement results of the absorbance (Abs value), maximum absorption wavelength (λmax), and molar absorption coefficient (ε) are shown in Table 1.
By the method similar to the reaction scheme in Synthesis Example 1 above, the exemplary compounds (dipyrromethene metal complex compounds or tautomers thereof) shown in Table 1 were synthesized. The identification of the compounds and the measurement of the maximum absorption wavelength (λmax) and the molar absorption coefficient (ε) of the compounds were performed similarly to Synthesis Example 1 above.

[3] = Transmittance at 450 nm of the color filter; details: negative-working colored resist, 1.0 μm film; transmittance at λmax normalized to 2%
Experimental: The colored resist solution obtained in section 3 above was applied to an undercoat layer side of the glass substrate having an undercoat layer obtained in section 2 above by a spin coater such that a film thickness was 1.0 μm. Subsequently, the film was pre-baked at 100° C. for 120 sec, whereby a monochromatic color filter was obtained.
The transmission spectrum of the color filter obtained above was measured, and the transmittance at 450 nm was evaluated according to the following criteria. The transmittance of the color filter at 450 nm was evaluated by correcting (normalizing) the transmittance at the maximum absorption wavelength of the colorant included in the color filter to 2%. A larger transmittance indicates greater transmission of blue light, which indicates favorable magenta or violet color that can be used in a blue filter.
A: Transmittance at 450 nm was 90% or more
B: Transmittance at 450 nm was 80% or more but not more than 90%
C: Transmittance at 450 nm was not more than 80%

[4] = Heat resistance of coating film (color difference ΔEab before and after heating); details: 100° C. for 1 hour on hot plate
Experimental: A glass substrate having undercoat layer formed by applying the colored resin composition obtained in section 3 above was heat-treated at 100° C. for 1 hour using a hot plate, and the color difference (ΔEab) between before and after the heating was determined by using a […] MCPD-1000 (trade name, manufactured by Otsuka Electronics Co., Ltd.). The heat resistance was evaluated according to the following criteria. A smaller AEab value indicates better heat resistance.
as §1, §2, §3

[5] = Storage stability of colored resist solution (precipitation after one month at room temperature); design: key: A: No precipitation was observed; B: Slight precipitation was observed; C: Precipitation was observed; details: negative-working colored resist solution, visual precipitation
From the text: 9.4 g of the resist solution obtained in section 1 above and 0.35 g of the exemplary compound Ia-12 synthesized above (a compound represented by Formula (4): dipyrromethene complex compound) were mixed and dissolved, whereby a colored resist solution (a negative-working ultraviolet-sensitive colored curable composition) was obtained.
The colored resist solution was stored for one month at room temperature, and then degree of precipitation was visually observed. The storage stability was evaluated according to the following criteria.
A: No precipitation was observed
B: Slight precipitation was observed
C: Precipitation was observed

| SMILES | Light-fastness [1] | maximum absorption wavelength (λmax) [2] [nm] | molar absorption coefficient (ε) [2] | Abs value at 450 nm when normalized to Abs = 1.0 at λmax [2] | Transmittance at 450 nm [3] | Heat resistance [4] | Storage stability [5] |
| --- | --- | --- | --- | --- | --- | --- | --- |
| CC1CC(C(C)(C)C)C(OC(=O)c2c(-c3ccccc3)c3[n](c2NC(=O)c2ccc(F)c(Br)c2)[Zn-]([OH])[N+]2=C(NC(=O)C(C)Sc4cc(C(=O)O)cc(C(=O)O)c4)C(C#N)=C(c4ccccc4)C2=C3)C(C(C)(C)C)C1 (stereo not shown) [Ib-53] | A (ΔEab value was less than 6) | 563 | 100,500 | 0.0082 | A (Transmittance at 450 nm was 90% or more) | A (ΔEab value was less than 6) | A |
| CC1CC(C(C)(C)C)C(OC(=O)C2=C(c3ccccc3)C3=Cc4c(-c5ccccc5)c(C(=O)OC5C(C(C)(C)C)CC(C)CC5C(C)(C)C)c(NC(=O)c5cc(F)ccc5NS(C)(=O)=O)[n]4[Zn-]([OH])[N+]3=C2NC(=O)c2cc(F)ccc2NS(C)(=O)=O)C(C(C)(C)C)C1 (stereo not shown) [IIb-20] | A (ΔEab value was less than 6) | 565 | 121,000 | 0.082 | A (Transmittance at 450 nm was 90% or more) | A (ΔEab value was less than 6) | A |
| CC1CC(C(C)(C)C)C(OC(=O)c2c(-c3ccccc3)c3[n](c2NC(=O)c2ccc(F)c(F)c2)[Zn-]([OH])[N+]2=C(NC(=O)C(C)Sc4cc(C(=O)O)cc(C(=O)O)c4)C(C#N)=C(c4ccccc4)C2=C3)C(C(C)(C)C)C1 (stereo not shown) [Ib-35] | A (ΔEab value was less than 6) | 562 | 80,500 | 0.0173 | A (Transmittance at 450 nm was 90% or more) | A (ΔEab value was less than 6) | A |
| CC1CC(C(C)(C)C)C(OC(=O)C2=C(c3ccccc3)C3=Cc4c(-c5ccccc5)c(C(=O)OC5C(C(C)(C)C)CC(C)CC5C(C)(C)C)c(NC(=O)c5ccc(C(F)(F)F)cc5)[n]4[Zn-]([OH])[N+]3=C2NC(=O)c2ccc(C(F)(F)F)cc2)C(C(C)(C)C)C1 (stereo not shown) [IIb-7] | A (ΔEab value was less than 6) | 563 | 97,100 | 0.0123 | A (Transmittance at 450 nm was 90% or more) | A (ΔEab value was less than 6) | A |
| CC1=C(C(=O)OC2C(C(C)(C)C)CC(C)CC2C(C)(C)C)C(NC(=O)c2ccc(F)c(F)c2)=[N+]2C1=Cc1c(C)c(C(=O)OC3C(C(C)(C)C)CC(C)CC3C(C)(C)C)c(NC(=O)c3ccc(F)c(F)c3)[n]1[Zn-]2[OH] (stereo not shown) [IIa-13] | A (ΔEab value was less than 6) | 550 | 121,300 | 0.0084 | A (Transmittance at 450 nm was 90% or more) | A (ΔEab value was less than 6) | A |
| CC1CC(C(C)(C)C)C(OC(=O)c2c(-c3ccccc3)c3[n](c2NC(=O)c2cc(C(F)(F)F)cc(C(F)(F)F)c2)[Zn-]([OH])[N+]2=C(NC(=O)C(C)Sc4cc(C(=O)O)cc(C(=O)O)c4)C(C#N)=C(c4ccccc4)C2=C3)C(C(C)(C)C)C1 (stereo not shown) [Ib-41] | A (ΔEab value was less than 6) | 562 | 76,500 | 0.0195 | A (Transmittance at 450 nm was 90% or more) | A (ΔEab value was less than 6) | A |
| Cc1c(C(=O)OC2C(C(C)(C)C)CC(C)CC2C(C)(C)C)c(NC(=O)c2cccc(C(F)(F)F)c2)[n]([Zn][OH])c1C=C1N=C(NC(=O)C(C)(C)C)C(C#N)=C1c1ccccc1 (stereo not shown) [Ia-14] | A (ΔEab value was less than 6) | 560 | 87,600 | 0.0112 | A (Transmittance at 450 nm was 90% or more) | A (ΔEab value was less than 6) | A |
| CC1=C(C(=O)OC2C(C(C)(C)C)CC(C)CC2C(C)(C)C)C(NC(=O)c2ccc(C(F)(F)F)cc2F)=[N+]2C1=Cc1c(C)c(C(=O)OC3C(C(C)(C)C)CC(C)CC3C(C)(C)C)c(NC(=O)c3ccc(C(F)(F)F)cc3F)[n]1[Zn-]2[OH] (stereo not shown) [IIa-15] | A (ΔEab value was less than 6) | 550 | 116,700 | 0.0095 | A (Transmittance at 450 nm was 90% or more) | A (ΔEab value was less than 6) | B |
| CC1CC(C(C)(C)C)C(OC(=O)c2c(-c3ccccc3)c(C=C3N=C(NC(=O)C(C)(C)C)C(C#N)=C3c3ccccc3)[n]([Zn][OH])c2NC(=O)c2cccc(C(F)(F)F)c2)C(C(C)(C)C)C1 (stereo not shown) [Ib-14] | A (ΔEab value was less than 6) | 561 | 85,200 | 0.0105 | A (Transmittance at 450 nm was 90% or more) | A (ΔEab value was less than 6) | A |
| CC1CC(C(C)(C)C)C(OC(=O)C2=C(c3ccccc3)C3=Cc4c(-c5ccccc5)c(C(=O)OC5C(C(C)(C)C)CC(C)CC5C(C)(C)C)c(NC(=O)c5ccc(F)c(Br)c5)[n]4[Zn-]([OH])[N+]3=C2NC(=O)c2ccc(F)c(Br)c2)C(C(C)(C)C)C1 (stereo not shown) [IIb-24] | A (ΔEab value was less than 6) | 564 | 100,900 | 0.091 | A (Transmittance at 450 nm was 90% or more) | A (ΔEab value was less than 6) | B |
